Laboratory results taken from paper PMC9003190, “MeNINV1: An Alkaline/Neutral Invertase Gene of Manihot esculenta, Enhanced Sucrose Catabolism and Promoted Plant Vegetative Growth in Transgenic Arabidopsis” (Plants, 2022).

T1: MeNINV1 (Manihot esculenta, UniProt G5DC09)
T1 construct: gene NINV1; full-length ORF in pDR195, expressed in invertase-deficient yeast SEY2102; crude enzyme supernatant, empty-vector control
T1 sequence (G5DC09 1-685): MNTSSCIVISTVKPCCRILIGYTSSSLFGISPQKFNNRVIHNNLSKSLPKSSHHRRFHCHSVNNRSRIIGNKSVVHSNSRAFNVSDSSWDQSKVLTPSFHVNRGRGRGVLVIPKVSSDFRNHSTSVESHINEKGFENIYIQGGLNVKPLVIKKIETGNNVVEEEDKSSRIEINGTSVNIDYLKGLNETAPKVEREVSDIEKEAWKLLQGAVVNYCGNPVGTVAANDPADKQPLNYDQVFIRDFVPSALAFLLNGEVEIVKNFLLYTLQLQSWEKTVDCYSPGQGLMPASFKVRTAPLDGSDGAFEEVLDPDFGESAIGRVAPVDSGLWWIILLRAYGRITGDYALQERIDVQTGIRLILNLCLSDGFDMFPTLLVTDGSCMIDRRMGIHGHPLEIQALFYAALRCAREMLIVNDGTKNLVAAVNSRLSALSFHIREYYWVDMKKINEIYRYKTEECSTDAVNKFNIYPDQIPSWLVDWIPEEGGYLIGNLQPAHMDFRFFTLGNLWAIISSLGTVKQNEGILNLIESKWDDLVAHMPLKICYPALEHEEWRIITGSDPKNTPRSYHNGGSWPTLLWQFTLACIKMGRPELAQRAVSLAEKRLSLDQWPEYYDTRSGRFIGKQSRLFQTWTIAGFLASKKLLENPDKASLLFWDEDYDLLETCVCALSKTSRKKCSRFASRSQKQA


What was measured:
MeNINV1 = target: T1, MeNINV1; assay: DNS reducing sugar assay, crude yeast extract; type: biochemical; settings: product inhibition of sucrose hydrolysis; pH 6.5
[1] = substrate: OC[C@H]1O[C@@](CO)(O[C@H]2O[C@H](CO)[C@@H](O)[C@H](O)[C@H]2O)[C@@H](O)[C@@H]1O; assay: DNS reducing sugar assay, crude yeast extract; type: biochemical, Manihot esculenta; settings: pH 6.5, optimum temperature 40 °C

| Molecule | DNS reducing sugar assay, crude yeast extract (MeNINV1) | Km [1] |
| --- | --- | --- |
| OCC1(O)OC[C@@H](O)[C@@H](O)[C@@H]1O (some centres unmarked) [fructose] | The addition of fructose, a decomposition product of sucrose, to the reaction solution inhibited | – |
| MeNINV1 (Manihot esculenta) (protein, full-length ORF in pDR195, expressed in invertase-deficient yeast SEY2102; crude enzyme supernatant, empty-vector control) MNTSSCIVISTVKPCCRILIGYTSSSLFGISPQKFNNRVIHNNLSKSLPKSSHHRRFHCHSVNNRSRIIGNKSVVHSNSRAFNVSDSSWDQSKVLTPSFHVNRGRGRGVLVIPKVSSDFRNHSTSVESHINEKGFENIYIQGGLNVKPLVIKKIETGNNVVEEEDKSSRIEINGTSVNIDYLKGLNETAPKVEREVSDIEKEAWKLLQGAVVNYCGNPVGTVAANDPADKQPLNYDQVFIRDFVPSALAFLLNGEVEIVKNFLLYTLQLQSWEKTVDCYSPGQGLMPASFKVRTAPLDGSDGAFEEVLDPDFGESAIGRVAPVDSGLWWIILLRAYGRITGDYALQERIDVQTGIRLILNLCLSDGFDMFPTLLVTDGSCMIDRRMGIHGHPLEIQALFYAALRCAREMLIVNDGTKNLVAAVNSRLSALSFHIREYYWVDMKKINEIYRYKTEECSTDAVNKFNIYPDQIPSWLVDWIPEEGGYLIGNLQPAHMDFRFFTLGNLWAIISSLGTVKQNEGILNLIESKWDDLVAHMPLKICYPALEHEEWRIITGSDPKNTPRSYHNGGSWPTLLWQFTLACIKMGRPELAQRAVSLAEKRLSLDQWPEYYDTRSGRFIGKQSRLFQTWTIAGFLASKKLLENPDKASLLFWDEDYDLLETCVCALSKTSRKKCSRFASRSQKQA | – | 10.59 mM |
